Reference: paper PMC5435687 (Scientific Reports, 2017)

Tests used:
[1] = system: SH-SY5Y cells transfected with Arf6 WT/Q67L; experiment: Uptake in cells transfected with Arf6 WT or Q67L (confocal imaging); assay type: cell-based, human; conditions: SH-SY5Y 24 h post transfection, 1 µM HF488-labelled Aβ 24 h, confocal microscopy
Description: The samples were washed 1x in serum free medium prior to incubation with Aβ peptides and/or other reagents also in serum free medium that was supplemented with 30 mM HEPES and 2% B-27. For experiments including Trf B-27 was omitted as it, according to the media formulation provided by the manufacturer, contains unlabelled Trf that interferes with the experiment. Prior to imaging, cells were stained with 50 nM LysoTracker Deep Red for 30 min and 5 µg/ml Hoechst 33342 was added during the last 10 min of incubation. The cells were thereafter washed 1x, treated with 5 µg/ml FM 4–64 and imaged immediately (for labelling of cellular membrane) or after 10 min incubation at 37 °C (for labelling of cellular membrane and endocytic vesicles). […] The scanner unit was mounted onto a Leica DMIRB microscope equipped with an oil immersion 63x NA 1.47 Leica HCX PL APO objective for imaging and co-localisation analysis, or a 40x NA 0.55 Leica N PLAN L CORR air objective for quantification of peptide uptake. The sample was excited and detected sequentially with appropriate excitation laser lines and emission filters. […]

[2] = system: SH-SY5Y cells; experiment: Flow cytometry quantification of cellular uptake and clearance; assay type: cell-based, human; conditions: 500 nM, up to 3 days, 500 nM to 2.5 µM for 5 h
Description: SH-SY5Y cells were grown in a 1:1 mixture of minimal essential medium (MEM) and nutrient mixture F-12 Ham supplemented with 10% heat-inactivated fetal bovine serum, 1% MEM non-essential amino acids and 2 mM L-glutamine. The cells were detached (trypsin-EDTA 0.05%, 5 minutes) and passaged twice a week. Cells were plated 1day prior to experiments in either flat-bottomed 96 well plates (Nunc; 60,000 cells/well for experiments <1day and 20,000 cells/well for experiments ≥1day) for flow cytometry or in glass-bottomed culture dishes (MatTek; 25,000 cells/14 mm dish) for microscopy.
Flow cytometry was used to quantify cellular uptake. […] All samples were kept on ice until they were analysed on a Guava EasyCyte 8HT (Millipore, Darmstadt, Germany) that automatically retrieves samples from a 96-well plate. […] The cell counting gate was determined using propidium iodide (0.5 µM, not washed away prior to analysis) and calcein-AM (10 nM, 15 min staining) to distinguish live and dead cells, and for each sample 5,000 cells from within the live gate were counted and analysed. HF488, AlexaFluor488, EGFP and calcein-AM were excited by a 488 nm laser and their fluorescence was detected through a 525/30 nm filter. Propidium iodide and mRFP were excited by the 488 nm laser but detected through a 692/46 nm filter. HF647 and AlexaFluor647 were excited with a 635 nm laser and detected through a 661/19 nm filter. […]

## Aβ(1–40): Synthetic 40 residue amyloid-β peptide conjugated to HiLyte Fluor HF488 (or HF647) at the N-terminus, from Anaspec
[1]
  Aβ uptake in Arf6 Q67L versus wild-type Arf6 overexpressing cells: no difference
[2]
  saturation of intracellular concentration: neither Aβ(1–40) nor Aβ(1–42) appears to saturate

## Aβ(1–42): Synthetic 42 residue amyloid-β peptide conjugated to HiLyte Fluor HF488 (or HF647) at the N-terminus, from Anaspec
[1]
  Aβ uptake in Arf6 Q67L versus wild-type Arf6 overexpressing cells: no difference
[2]
  saturation of intracellular concentration: neither Aβ(1–40) nor Aβ(1–42) appears to saturate
